Laboratory results: patent US20250313563A1, “GLYCOGEN SYNTHASE KINASE 3 INHIBITORS AND USES THEREOF” (The Broad Institute, Inc., priority 2022, published 2025)
Like-named read-outs stand apart in the source and are kept apart here.

Legend:
[1] = molecular target: GSK3b (GST-full length GSK3b) (Homo sapiens (Human), UniProt P49841); assay: GSK3b TR-FRET kinase assay; type: biochemical
Outline: (§1)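 Compound was preincubated 30 min with 1 nM GST-GSK3 enzyme. Reaction ran 100 min at ambient temperature in Tris pH 7.5/MgCl2 with 200 nM biotinylated pS645-glycogen synthase 631-650 peptide and ATP (4 μM GSK3α, 2 μM GSK3b, or 1 mM). The EDTA-stopped reaction was read by TR-FRET (Tb-anti-pSer641/streptavidin-d2), and IC50s were fitted.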

[2] = molecular target: GSK3α (GST-full length GSK3α) (Homo sapiens (Human), UniProt P49840); assay: GSK3α TR-FRET kinase assay; type: biochemical
Outline: as §1

[3] = 1 nM GSK3b, 2 μM ATP, 30 minute preincubation, geometric mean, read-out: GSK3-B TR-FRET BIOCHEMICAL (TR-FRET), GMean, IC50
[4] = 1 nM GSK3α, 4 μM ATP, 30 minute preincubation, geometric mean, read-out: GSK3-A TR-FRET BIOCHEMICAL (TR-FRET), GMean, IC50
[5] = 1 nM GSK3b, 2 μM ATP, 30 minute preincubation, Table 16, read-out: GSK3-B TR-FRET BIOCHEMICAL (TR-FRET)
[6] = 1 nM GSK3α, 4 μM ATP, 30 minute preincubation, Table 16, read-out: GSK3-A TR-FRET BIOCHEMICAL (TR-FRET)
[7] = read-out: GSK3-B (TR-FRET 1 mM ATP), GMean, IC50, 1 mM ATP, geometric mean
[8] = read-out: GSK3-A (TR-FRET 1 mM ATP), GMean, IC50, 1 mM ATP, geometric mean
[9] = 1 nM GSK3b, 2 μM ATP, 30 minute preincubation, read-out: GSK3-B TR-FRET BIOCHEMICAL (TR-FRET), IC50
[10] = 1 nM GSK3α, 4 μM ATP, 30 minute preincubation, read-out: GSK3-A TR-FRET BIOCHEMICAL (TR-FRET), IC50

Chain of GSK3b (GST-full length GSK3b) (P49841 whole entry): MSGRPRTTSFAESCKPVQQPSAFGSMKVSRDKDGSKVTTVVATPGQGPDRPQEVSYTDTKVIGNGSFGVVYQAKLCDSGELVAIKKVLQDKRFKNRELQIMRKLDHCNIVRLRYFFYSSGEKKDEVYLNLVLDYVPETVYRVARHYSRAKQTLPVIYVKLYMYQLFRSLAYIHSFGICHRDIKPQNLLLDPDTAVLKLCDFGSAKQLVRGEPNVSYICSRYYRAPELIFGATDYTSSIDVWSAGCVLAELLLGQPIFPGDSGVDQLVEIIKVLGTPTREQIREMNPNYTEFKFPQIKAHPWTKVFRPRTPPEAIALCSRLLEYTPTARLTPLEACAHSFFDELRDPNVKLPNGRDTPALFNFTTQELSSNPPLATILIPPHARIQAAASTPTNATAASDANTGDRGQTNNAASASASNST
Chain of GSK3α (GST-full length GSK3α) (P49840 whole entry): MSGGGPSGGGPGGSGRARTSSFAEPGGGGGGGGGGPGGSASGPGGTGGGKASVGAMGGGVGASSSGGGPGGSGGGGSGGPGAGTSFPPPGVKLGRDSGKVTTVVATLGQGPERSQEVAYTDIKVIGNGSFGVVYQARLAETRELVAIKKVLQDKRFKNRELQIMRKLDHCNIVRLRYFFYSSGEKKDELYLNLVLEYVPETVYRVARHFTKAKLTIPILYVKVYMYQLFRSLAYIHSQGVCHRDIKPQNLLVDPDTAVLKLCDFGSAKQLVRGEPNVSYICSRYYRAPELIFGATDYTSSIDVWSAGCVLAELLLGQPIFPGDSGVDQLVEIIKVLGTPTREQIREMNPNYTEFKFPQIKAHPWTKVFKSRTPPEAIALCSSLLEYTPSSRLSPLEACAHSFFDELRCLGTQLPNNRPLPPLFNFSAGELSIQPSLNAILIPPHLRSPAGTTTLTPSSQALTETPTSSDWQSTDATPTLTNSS

Structure (SMILES)	IC50 [1, 3] [nM]	IC50 [2, 4] [nM]	IC50 [1, 5] [nM]	IC50 [2, 6] [nM]	other results
CC[C@]1(c2cccc(-c3ccnc(CCO)c3)c2)C2=C(CC(C)(C)CC2=O)Nc2n[nH]cc21 [Compound 947810]			100 to 1000	≤ 100	
CC[C@]1(c2cccc(-c3ccncc3C)c2)C2=C(CC(C)(C)NC2=O)Nc2[nH]nc(C(F)(F)F)c21 [Compound 947812]	≤ 100	≤ 100			
CC1(C)CC(=O)C2=C(C1)Nc1n[nH]cc1C21CN(c2cccnc2)C1 [Compound 947813]					IC50 ([1]; 1 nM GSK3b, 2 μM ATP, 30 minute preincubation, Table 16, read-out: GSK3-B TR-FRET BIOCHEMICAL (TR-FRET), IC50): 1000 to 5000 nM; IC50 ([2]; 1 nM GSK3α, 4 μM ATP, 30 minute preincubation, Table 16, read-out: GSK3-A TR-FRET BIOCHEMICAL (TR-FRET), IC50): 1000 to 5000 nM
CCC1(c2cccc(-c3ccncc3C)c2)C2=C(CC(C)(C)NC2=O)Nc2n[nH]c(C(F)(F)F)c21 (stereo not shown) [Compound 947814]	≤ 100	≤ 100			IC50 [1, 7]: ≤ 100 nM; IC50 [2, 8]: ≤ 100 nM
CC[C@]1(c2cccc(-c3cncn3C)c2)C2=C(CC(C)(C)NC2=O)Nc2n[nH]cc21 [Compound 947820]	100 to 1000	100 to 1000			
CC[C@@]1(c2cccc(-c3ccncc3F)c2)C2=C(CC(C)(C)NC2=O)Nc2n[nH]c(C)c21 [Compound 947821]	≤ 100	≤ 100			
CC[C@]1(c2cccc(-c3cc(C)ncc3F)c2)C2=C(CC(C)(C)NC2=O)Nc2n[nH]cc21 [Compound 947822]	> 5000	100 to 1000			
CCC1(c2cccc(-c3cnnn3C)c2)C2=C(CC(C)(C)CC2=O)Nc2n[nH]cc21 (stereo not shown) [Compound 947824]			1000 to 5000	100 to 1000	
CCn1ccc(S(=O)(=O)N2CCC3(CC2)C2=C(CC(C)(C)NC2=O)Nc2n[nH]cc23)n1 [Compound 947836]	100 to 1000	≤ 100			IC50 [1, 9]: 100 to 1000 nM; IC50 [2, 10]: ≤ 100 nM
CCc1ncc(S(=O)(=O)N2CCC3(CC2)C2=C(CC(C)(C)NC2=O)Nc2n[nH]cc23)s1 [Compound 947837]	≤ 100	≤ 100			IC50 [1, 9]: ≤ 100 nM; IC50 [2, 10]: ≤ 100 nM
CCC1(c2cccc(-c3ccnc(C)c3)c2)C2=C(CC(C)(C)NC2=O)Nc2n[nH]c(C(F)(F)F)c21 (stereo not shown) [Compound 947858]	≤ 100	≤ 100			
CCC1(c2cccc(S(=O)(=O)C3CC3)c2)C2=C(CC(C)(C)NC2=O)Nc2n[nH]c(C(F)(F)F)c21 (stereo not shown) [Compound 947859]	≤ 100	≤ 100			IC50 [1, 7]: ≤ 100 nM; IC50 [2, 8]: ≤ 100 nM
CCC1(c2cccc(N3CCCC3)c2)C2=C(CC(C)(C)NC2=O)Nc2n[nH]c(C(F)(F)F)c21 (stereo not shown) [Compound 947860]	≤ 100	≤ 100			IC50 [1, 7]: 100 to 1000 nM; IC50 [2, 8]: ≤ 100 nM
CCC1(c2cccc(N3CCOCC3)c2)C2=C(CC(C)(C)NC2=O)Nc2n[nH]c(C(F)(F)F)c21 (stereo not shown) [Compound 947863]	≤ 100	≤ 100			
CCC1(c2cccc(C(F)F)c2)C2=C(CC(C)(C)NC2=O)Nc2n[nH]cc21 (stereo not shown) [Compound 947864]	100 to 1000	≤ 100			
CC[C@]1(c2cccc(-c3ccncc3F)c2)C2=C(CC(C)(C)NC2=O)Nc2n[nH]cc21 [Compound 947869]	≤ 100	≤ 100			IC50 [1, 7]: 1000 to 5000 nM; IC50 [2, 8]: ≤ 100 nM
CCC1(c2cccc(S(=O)(=O)C(C)C)c2)C2=C(CC(C)(C)NC2=O)Nc2[nH]nc(C)c21 (stereo not shown) [Compound 947870]	100 to 1000	≤ 100			
CC[C@]1(c2cccc(-c3cnn(C)c3)c2)C2=C(CC(C)(C)NC2=O)Nc2n[nH]c(C(F)(F)F)c21 [Compound 947871]	100 to 1000	≤ 100			
CC[C@@]1(c2cccc(OC(C)C)c2)C2=C(CC(C)(C)CC2=O)Nc2n[nH]c(C(F)(F)F)c21 [Compound 947872]			1000 to 5000	100 to 1000	
CCC1(c2cccc(S(=O)(=O)C(C)C)c2)C2=C(CC(C)(C)NC2=O)Nc2n[nH]c(C)c21 (stereo not shown) [Compound 947876]	≤ 100	≤ 100			IC50 [1, 7]: 100 to 1000 nM; IC50 [2, 8]: ≤ 100 nM
CC1(C)CC(=O)C2=C(C1)Nc1n[nH]cc1C21CCN(S(=O)(=O)c2ccc3c(c2)OCCO3)CC1 [Compound 947900]			≤ 100	≤ 100	
CC1(C)CC(=O)C2=C(C1)Nc1n[nH]cc1C21CCN(S(=O)(=O)c2ccc(C(F)(F)F)cn2)CC1 [Compound 947902]			≤ 100	≤ 100	
CC1(C)CC(=O)C2=C(C1)Nc1n[nH]cc1C21CCN(S(=O)(=O)c2cnn(CCF)c2)CC1 [Compound 947903]			≤ 100	≤ 100	

Now from value to compound, other results behind:

IC50 [1, 3] [nM]	IC50 [2, 4] [nM]	IC50 [1, 5] [nM]	IC50 [2, 6] [nM]	Structure (SMILES)	other results
1000 to 5000	100 to 1000			CC[C@]1(c2cccc(-c3cnn4c3CCCC4)c2)C2=C(CC(C)(C)NC2=O)Nc2n[nH]c(C)c21 [Compound 947809]	
		> 5000	1000 to 5000	CC[C@@]1(c2cccc(-c3ccnc(CCO)c3)c2)C2=C(CC(C)(C)CC2=O)Nc2n[nH]cc21 [Compound 947816]	
≤ 100	≤ 100			CC[C@@]1(c2cccc(-c3cnn4c3CCCC4)c2)C2=C(CC(C)(C)NC2=O)Nc2n[nH]c(C)c21 [Compound 947817]	
		> 5000	100 to 1000	CCC1(c2cccc(Oc3ncccn3)c2)C2=C(CC(C)(C)CC2=O)Nc2n[nH]cc21 (stereo not shown) [Compound 947818]	
≤ 100	≤ 100			CC[C@]1(c2cccc(N(C)c3ncccn3)c2)C2=C(CC(C)(C)NC2=O)Nc2n[nH]cc21 [Compound 947826]	
100 to 1000	≤ 100			CC1(C)CC2=C(C(=O)N1)C1(CCN(S(=O)(=O)c3cnn(C(C)(C)C)c3)CC1)c1c[nH]nc1N2 [Compound 947835]	IC50 [1, 9]: 100 to 1000 nM; IC50 [2, 10]: ≤ 100 nM
≤ 100	≤ 100			CCC1(c2cccc(-c3ccnc4c3CCC4)c2)C2=C(CC(C)(C)NC2=O)Nc2n[nH]c(C(F)(F)F)c21 (stereo not shown) [Compound 947862]	IC50 [1, 7]: 100 to 1000 nM; IC50 [2, 8]: ≤ 100 nM
≤ 100	≤ 100			CCC1(c2cccc(-c3ccncc3F)c2)C2=C(CC(C)(C)NC2=O)Nc2n[nH]c(C(F)(F)F)c21 (stereo not shown) [Compound 947866]	
		≤ 100	≤ 100	CCC1(c2cccc(OC(C)C)c2)C2=C(CC(C)(C)CC2=O)Nc2[nH]nc(C(F)(F)F)c21 (stereo not shown) [Compound 947867]	IC50 [1, 7]: ≤ 100 nM; IC50 [2, 8]: ≤ 100 nM
1000 to 5000	100 to 1000			CCC1(c2cccc(-c3ccncc3F)c2)C2=C(CC(C)(C)NC2=O)Nc2n[nH]cc21 (stereo not shown) [Compound 947874]	
		≤ 100	≤ 100	Cc1csc(S(=O)(=O)N2CCC3(CC2)C2=C(CC(C)(C)CC2=O)Nc2n[nH]cc23)n1 [Compound 947897]	
		100 to 1000	≤ 100	Cn1cc(S(=O)(=O)N2CCC3(CC2)C2=C(CC(C)(C)CC2=O)Nc2n[nH]cc23)nn1 [Compound 947898]	
		≤ 100	≤ 100	Cc1ncc(S(=O)(=O)N2CCC3(CC2)C2=C(CC(C)(C)CC2=O)Nc2n[nH]cc23)s1 [Compound 947899]	
		≤ 100	≤ 100	CC1(C)CC(=O)C2=C(C1)Nc1n[nH]cc1C21CCN(S(=O)(=O)c2cccc3ccncc23)CC1 [Compound 947901]	
		≤ 100	≤ 100	CC1(C)CC(=O)C2=C(C1)Nc1n[nH]cc1C21CCN(S(=O)(=O)c2cnn(-c3ccccc3)c2)CC1 [Compound 947904]	
100 to 1000	≤ 100			CCC1(c2cccc(-c3ccnn3C)c2)C2=C(CC(C)(COC)NC2=O)Nc2n[nH]cc21 (stereo not shown) [Compound 947905]	
> 5000	1000 to 5000			CCC1(c2cccc(-c3ccnn3C)c2)C2=C(CC(C)(COC)NC2=O)Nc2n[nH]cc21 (stereo not shown) [Compound 947907]	
